Measured values as given in patent US10638756B2, “Molecules having pesticidal utility, and intermediates, compositions, and processes, related thereto” (Dow AgroSciences LLC, priority 2017, dated 2020).

Experiments:
Assay type in all cases: in vivo
[1] = system: Green Peach Aphid (Myzus persicae); assay: Bioassay on Green Peach Aphid (GPA), foliar spray on cabbage seedlings; conditions: 72 h, 200 ppm foliar spray on cabbage seedlings, three days, Abbott corrected % control, read-out: GPA % Control (or Mortality) rating
Experimental: Certain molecules disclosed in this document were tested against GPA using procedures described in the following example. In the reporting of the results, the “GPA & YFM Rating Table” was used (See Table Section).
Cabbage seedlings grown in 3-inch pots, with 2-3 small (3-5 cm) true leaves, were used as test substrate. The seedlings were infested with 20-50 GPA (wingless adult and nymph stages) one day prior to chemical application. Four pots with individual seedlings were used for each treatment. Test molecules (2 mg) were dissolved in 2 mL of acetone/methanol (1:1) solvent, forming stock solutions of 1000 ppm test molecule. The stock solutions were diluted 5× with 0.025% Tween 20 in water to obtain the solution at 200 ppm test molecule. A hand-held aspirator-type sprayer was used for spraying a solution to both sides of […] leaves until runoff. Reference plants (solvent check) were sprayed with the diluent only containing 20% by volume of acetone/methanol (1:1) solvent. Treated plants were held in a holding room for three days at approximately 25° C. and ambient relative humidity (RH) prior to grading. Evaluation was conducted by counting the number of live aphids per plant under a microscope. Percent control was measured using Abbott's correction formula (W. S. Abbott, “A Method of Computing the Effectiveness of an Insecticide” J. Econ. Entomol. 18 (1925), pp. 265-267) as follows. Corrected % Control=100*(X−Y)/X where X=No. of live aphids on solvent check plants and Y=No. of live aphids on treated plants. The results are indicated in the table entitled “Table ABC: Biological Results” (See Table Section).

[2] = system: Cabbage Looper (Trichoplusia ni); assay: Bioassay on Cabbage Looper (CL), 128-well diet tray assay; conditions: 168 h, 50 μg/cm^2 on artificial diet, second instar larvae, five to seven days, read-out: CL % Control (or Mortality) rating
Method in brief: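 Diet tray, 2nd instar, 1–5 larvae/well; 50 μg/cm^2 compound surface-applied (acetone:water 90:10), dried; 8 wells/treatment; 25° C, 14:10 L:D, 5–7 d; % mortality, mean of 8 wells.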

[3] = system: Beet Armyworm (Spodoptera exigua); assay: Bioassay on Beet Armyworm (BAW), 128-well diet tray assay; conditions: for mortality at 50 µg/cm2: Spodoptera exigua, 168 h, 50 μg/cm^2 on artificial diet, second instar larvae, five to seven days, read-out: BAW % Control (or Mortality) rating
[4] = system: Yellow Fever Mosquito (Aedes aegypti); conditions: about 1 day-old larvae, 3 days, scored on mortality
Experimental: Certain molecules disclosed in this document were tested against YFM using procedures described in the following paragraph. In the reporting of the results, the “GPA & YFM Rating Table” was used (See Table Section).
Master plates containing 400 μg of a molecule dissolved in 100 μL of dimethyl sulfoxide (DMSO) (equivalent to a 4000 ppm solution) are used. A master plate of assembled molecules contains 15 μL per well. To this plate, 135 μL of a 90:10 water/acetone mixture is added to each well. A robot (Biomek® NXP Laboratory Automation Workstation) is programmed to dispense 15 μL aspirations from the master plate into an empty 96-well shallow plate (“daughter” plate). There are 6 reps (“daughter” plates) created per master. The created “daughter” plates are then immediately infested with YFM larvae.
The day before plates are to be treated, mosquito eggs are placed in Millipore water containing liver powder to begin hatching (4 g. into 400 mL). After the “daughter” plates are created using the robot, they are infested with 220 μL of the liver powder/larval mosquito mixture (about 1 day-old larvae). After plates are infested with mosquito larvae, a non-evaporative lid is used to cover the plate to reduce drying. Plates are held at room temperature for 3 days prior to grading. After 3 days, each well is observed and scored based on mortality. The results are indicated in the table entitled “Table ABC: Biological Results” (See Table Section).

| Compound | mortality at 200 ppm [1] [%] | mortality at 50 µg/cm2 [2] [%] | mortality at 50 µg/cm2 [3] [%] | YFM % Control (or Mortality) rating [4] | BAW (Table CD-1) ([3]; 0.05 μg/cm^2) | BAW (Table CD-1) ([3]; 5.0 μg/cm^2) | BAW (Table CD-1) ([3]; 50 μg/cm^2) |
| --- | --- | --- | --- | --- | --- | --- | --- |
| O=C(NNc1ncccn1)c1ccc(/C(F)=C/C(c2cc(Cl)c(F)c(Cl)c2)C(F)(F)F)cc1C(F)(F)F (centres unmarked) [F4, (Z)-4-(3-(3,5-Dichloro-4-fluorophenyl)-1,4,4,4-tetrafluorobut-1-en-1-yl)-N′-(pyrimidin-2-yl)-2-(trifluoromethyl)benzohydraziderazide] | 0 to 80 | 50 to 100 | 50 to 100 | – | – | – | – |
| C#CCN(C(=O)c1ccc(/C(F)=C/C(c2cc(Cl)c(Cl)c(Cl)c2)C(F)(F)F)cc1C(F)(F)F)N(C)c1ncccn1 (centres unmarked) [F180, (Z)—N′-Methyl-N-(prop-2-yn-1-yl)-N′-(pyrimidin-2-yl)-4-(1,4,4,4-tetrafluoro-3-(3,4,5-trichlorophenyl)but-1-en-1-yl)-2-(trifluoromethyl)benzohydrazide] | 0 to 80 | 50 to 100 | 50 to 100 | A (80-100) | – | – | – |
| O=C(NNc1ncc(Cl)cn1)c1ccc(/C(F)=C/C(c2cc(Cl)c(Cl)c(Cl)c2)C(F)(F)F)cc1C(F)(F)F (centres unmarked) [F63, (Z)—N′-(5-Chloropyrimidin-2-yl)-4-(1,4,4,4-tetrafluoro-3-(3,4,5-trichlorophenyl)but-1-en-1-yl)-2-(trifluoromethyl)benzohydrazide] | 0 to 80 | 50 to 100 | 50 to 100 | A (80-100) | – | – | – |
| O=C(NNc1ncccn1)c1ccc(/C(F)=C/C(c2cc(Cl)c(Cl)c(Cl)c2)C(F)(F)F)cc1C(F)(F)F (centres unmarked) [F97, (Z)—N′-(pyrimidin-2-yl)-4-(1,4,4,4-tetrafluoro-3-(3,4,5-trichlorophenyl)but-1-en-1-yl)-2-(trifluoromethyl)benzohydrazide] | 80 to 100 | 50 to 100 | 50 to 100 | – | 100 | 100 | 100 |
| O=C(Nn1ccnc1)c1ccc(/C(F)=C/C(c2cc(Cl)c(Cl)c(Cl)c2)C(F)(F)F)cc1C(F)(F)F (centres unmarked) [F10, (Z)—N-(1H-Imidazol-1-yl)-4-(1,4,4,4-tetrafluoro-3-(3,4,5-trichlorophenyl)but-1-en-1-yl)-2-(trifluoromethyl)benzamide] | 0 to 80 | 50 to 100 | 50 to 100 | – | – | – | – |
| CN(NC(=O)c1ccc(/C(F)=C/C(c2cc(Cl)c(Cl)c(Cl)c2)C(F)(F)F)cc1C(F)(F)F)c1ncccn1 (centres unmarked) [F71, (Z)—N′-Methyl-N′-(pyrimidin-2-yl)-4-(1,4,4,4-tetrafluoro-3-(3,4,5-trichlorophenyl)but-1-en-1-yl)-2-(trifluoromethyl)benzohydrazide] | 80 to 100 | 50 to 100 | 50 to 100 | – | – | – | – |
| CN(NC(=O)c1ccc(/C(F)=C/C(c2ccc(Br)c(C(F)(F)F)c2)C(F)(F)F)cc1C(F)(F)F)c1ncccn1 (centres unmarked) [F39, (Z)-4-(3-(4-Bromo-3-(trifluoromethyl)phenyl)-1,4,4,4-tetrafluorobut-1-en-1-yl)-N′-methyl-N′-(pyrimidin-2-yl)-2-(trifluoromethyl)benzohydrazide] | – | 50 to 100 | 50 to 100 | A (80-100) | – | – | – |
| CNN(CC(=O)NCC(F)(F)F)C(=O)c1ccc(/C(F)=C/C(c2cc(Cl)c(Cl)c(Cl)c2)C(F)(F)F)cc1C(F)(F)F (centres unmarked) [F183, (Z)-2-(2-Methyl-1-(4-(1,4,4,4-tetrafluoro-3-(3,4,5-trichlorophenyl)but-1-en-1-yl)-2-(trifluoromethyl)benzoyl)hydrazinyl)-N-(2,2,2-trifluoroethyl)acetamide] | – | 50 to 100 | 50 to 100 | A (80-100) | – | – | – |
| CN(NC(=O)c1ccc(/C(F)=C/C(c2cc(Cl)c(Cl)c(Cl)c2)C(F)(F)F)cc1Br)c1ncccn1 (centres unmarked) [F102, (Z)-2-Bromo-N′-methyl-N′-(pyrimidin-2-yl)-4-(1,4,4,4-tetrafluoro-3-(3,4,5-trichlorophenyl)but-1-en-1-yl)benzohydrazide] | – | 50 to 100 | 50 to 100 | A (80-100) | – | – | – |
| O=C(NNc1cc(F)ccc1F)c1ccc(/C(F)=C/C(c2cc(Cl)c(Cl)c(Cl)c2)C(F)(F)F)cc1C(F)(F)F (centres unmarked) [F134, (Z)—N′-(2,5-Difluorophenyl)-4-(1,4,4,4-tetrafluoro-3-(3,4,5-trichlorophenyl)but-1-en-1-yl)-2-(trifluoromethyl)benzohydrazide] | – | 50 to 100 | 50 to 100 | A (80-100) | – | – | – |
| O=C(NNc1c(F)cccc1Cl)c1ccc(/C(F)=C/C(c2cc(Cl)c(Cl)c(Cl)c2)C(F)(F)F)cc1C(F)(F)F (centres unmarked) [F1, (Z)—N′-(2-chloro-6-fluorophenyl)-4-(1,4,4,4-tetrafluoro-3-(3,4,5-trichlorophenyl)but-1-en-1-yl)-2-(trifluoromethyl)benzohydrazide] | – | 50 to 100 | 50 to 100 | A (80-100) | – | – | – |
| COc1ccccc1NNC(=O)c1ccc(/C(F)=C/C(c2cc(Cl)c(Cl)c(Cl)c2)C(F)(F)F)cc1C(F)(F)F (centres unmarked) [F14, (Z)—N′-(2-Methoxyphenyl)-4-(1,4,4,4-tetrafluoro-3-(3,4,5-trichlorophenyl)but-1-en-1-yl)-2-(trifluoromethyl)benzohydrazide] | – | 50 to 100 | 50 to 100 | A (80-100) | – | – | – |
| Cc1csc(N(N)C(=O)c2ccc(/C(F)=C/C(c3cc(Cl)c(Cl)c(Cl)c3)C(F)(F)F)cc2C(F)(F)F)n1 (centres unmarked) [F109, (Z)—N-(4-Methylthiazol-2-yl)-4-(1,4,4,4-tetrafluoro-3-(3,4,5-trichlorophenyl)but-1-en-1-yl)-2-(trifluoromethyl)benzohydrazide] | – | 50 to 100 | 50 to 100 | A (80-100) | – | – | – |
| O=C(NNc1cccc(C(F)(F)F)c1)c1ccc(/C(F)=C/C(c2cc(Cl)c(Cl)c(Cl)c2)C(F)(F)F)cc1C(F)(F)F (centres unmarked) [F3, (Z)-4-(1,4,4,4-Tetrafluoro-3-(3,4,5-trichlorophenyl)but-1-en-1-yl)-2-(trifluoromethyl)-N′-(3-(trifluoromethyl)phenyl)benzohydrazide] | – | 50 to 100 | 50 to 100 | A (80-100) | – | – | – |
